# Source: the supplement of paper PMC10307832
# Compound: COc1cc([C@@H]2c3cc4c(cc3[C@@H](O[C@@H]3O[C@@H]5CO[C@@H](C)O[C@H]5[C@H](O)[C@H]3O)[C@H]3COC(=O)[C@H]23)OCO4)cc(OC)c1O [Etoposide] + Nc1nc2[nH]cc(CCc3ccc(C(=O)N[C@@H](CCC(=O)O)C(=O)O)cc3)c2c(=O)[nH]1 [Pemetrexed] (partner 0.2 µM)
# Assay: relative viability (nuclei count vs DMSO), 5 days (fraction); higher = more cells survive
# Conditions: first compound 0.01 µM
# How it was run: (§1)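 Lung cancer cell lines in 1536-well plates got either a single drug or a fixed anchor-drug dose together with five library-drug doses (not always all listed) in √10 steps, by pin tool, on the day after seeding. Nuclei were counted after 5 days, and relative viability is the treated-to-vehicle ratio of nuclei counts. Values are medians of duplicate plates.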
row,Cell Line,relative viability
1,NCI-H522,0.896
2,NCI-H838,0.277
3,NCI-H1650,0.354
4,NCI-H2087,0.641
5,PC-14,0.13
6,LCLC-103H,0.447
7,NCI-H596,0.463
8,NCI-H2228,0.375
9,EMC-BAC-2,0.442
10,NCI-H2085,0.769
11,HCC-366,0.174
12,NCI-H1666,0.832
13,NCI-H647,0.173
14,LK-2,0.36
15,NCI-H2126,0.633
16,NCI-H2342,0.861
17,SK-MES-1,0.912
18,H3255,0.541
19,COR-L23,0.198
20,HCC-44,0.64
21,SW 900,0.419
22,NCI-H650,0.901
23,NCI-H1792,0.743
24,NCI-H1563,0.693
25,NCI-H358,0.179
26,NCI-H661,0.863

# Same assay, conditions: first compound 0.03162 µM
row,Cell Line,relative viability
1,NCI-H522,1.22
2,NCI-H838,0.259
3,NCI-H1650,0.376
4,NCI-H1993,0.662
5,NCI-H2087,0.723
6,PC-14,0.141
7,LCLC-103H,0.477
8,NCI-H596,0.539
9,NCI-H2228,0.358
10,EMC-BAC-2,0.466
11,NCI-H2085,0.95
12,HCC-366,0.182
13,NCI-H1666,0.866
14,NCI-H647,0.161
15,LK-2,0.315
16,NCI-H2126,0.878
17,NCI-H2342,0.866
18,SK-MES-1,1.02
19,H3255,0.619
20,COR-L23,0.207
21,HCC-44,0.684
22,SW 900,0.543
23,NCI-H1648,0.859
24,NCI-H650,1.01
25,NCI-H1792,0.768
26,NCI-H1563,0.806
27,NCI-H358,0.186
28,NCI-H661,0.984

# Same assay, conditions: first compound 0.1 µM
row,Cell Line,relative viability
1,NCI-H522,0.784
2,NCI-H838,0.274
3,NCI-H1650,0.388
4,NCI-H1993,0.502
5,NCI-H2087,0.703
6,PC-14,0.168
7,LCLC-103H,0.523
8,NCI-H596,0.488
9,NCI-H2228,0.355
10,EMC-BAC-2,0.476
11,NCI-H2085,0.803
12,HCC-366,0.272
13,NCI-H1666,0.923
14,NCI-H647,0.188
15,LK-2,0.208
16,NCI-H2126,0.591
17,NCI-H2342,0.472
18,SK-MES-1,0.844
19,H3255,0.564
20,COR-L23,0.207
21,HCC-44,0.801
22,SW 900,0.522
23,NCI-H1648,0.732
24,NCI-H650,0.608
25,NCI-H1563,0.547
26,NCI-H358,0.178
27,NCI-H661,0.849

# Same assay, conditions: first compound 0.3162 µM
row,Cell Line,relative viability
1,NCI-H522,0.877
2,NCI-H838,0.251
3,NCI-H1650,0.239
4,NCI-H1993,0.543
5,NCI-H2087,0.582
6,PC-14,0.121
7,LCLC-103H,0.473
8,NCI-H596,0.546
9,NCI-H2228,0.299
10,EMC-BAC-2,0.37
11,NCI-H2085,0.907
12,HCC-366,0.157
13,NCI-H1666,0.631
14,NCI-H647,0.121
15,LK-2,0.224
16,NCI-H2126,0.677
17,NCI-H2342,0.421
18,SK-MES-1,0.708
19,H3255,0.536
20,COR-L23,0.214
21,HCC-44,0.64
22,SW 900,0.47
23,NCI-H1648,0.798
24,NCI-H650,0.673
25,NCI-H1792,0.616
26,NCI-H1563,0.425
27,NCI-H358,0.168
28,NCI-H661,0.858

# Same assay, conditions: first compound 1 µM
row,Cell Line,relative viability
1,NCI-H522,1
2,NCI-H838,0.239
3,NCI-H1650,0.223
4,NCI-H1993,0.399
5,NCI-H2087,0.374
6,PC-14,0.106
7,LCLC-103H,0.469
8,NCI-H596,0.477
9,NCI-H2228,0.181
10,EMC-BAC-2,0.284
11,NCI-H2085,0.378
12,HCC-366,0.0669
13,NCI-H1666,0.563
14,NCI-H647,0.121
15,LK-2,0.186
16,NCI-H2126,0.461
17,NCI-H2342,0.291
18,SK-MES-1,0.256
19,H3255,0.404
20,COR-L23,0.189
21,HCC-44,0.601
22,SW 900,0.204
23,NCI-H1648,0.581
24,NCI-H650,0.347
25,NCI-H1792,0.229
26,NCI-H1563,0.371
27,NCI-H358,0.157
28,NCI-H661,0.625

# Compound: CC1=C(N=C(N=C1N)[C@H](CC(=O)N)NC[C@@H](C(=O)N)N)C(=O)N[C@@H]([C@H](C2=CN=CN2)OC3C(C(C(C(O3)CO)O)O)OC4C(C(C(C(O4)CO)O)OC(=O)N)O)C(=O)N[C@H](C)[C@H]([C@H](C)C(=O)N[C@@H]([C@@H](C)O)C(=O)NCCC5=NC(=CS5)C6=NC(=CS6)C(=O)NCCC[S+](C)C)O [Bleomycin] + CC1(C)CCC(c2ccc(Cl)cc2)=C(CN2CCN(c3ccc(C(=O)NS(=O)(=O)c4ccc(N[C@H](CCN5CCOCC5)CSc5ccccc5)c(S(=O)(=O)C(F)(F)F)c4)cc3)CC2)C1 [Navitoclax] (partner 0.5 µM)
# Assay: as above
# Conditions: first compound 0.01 µM; main component drawn
# How it was run: as §1
row,Cell Line,relative viability
1,NCI-H838,0.768
2,NCI-H1650,0.394
3,EBC-1,0.392
4,NCI-H1703,1.05
5,NCI-H1993,0.887
6,NCI-H2087,0.69
7,PC-14,0.663
8,NCI-H596,0.648
9,NCI-H2228,1.02
10,EMC-BAC-2,1.04
11,NCI-H2085,0.994
12,Calu-6,0.459
13,HCC-366,0.74
14,NCI-H1666,0.761
15,NCI-H647,0.408
16,LK-2,0.478
17,NCI-H2126,0.787
18,SK-MES-1,1.12
19,H3255,0.395
20,COR-L23,0.811
21,IA-LM,0.498
22,HCC-44,0.674
23,A549,0.933
24,NCI-H727,0.388
25,NCI-H1299,0.977
26,NCI-H1792,0.541

# Same assay, conditions: first compound 0.03162 µM; main component drawn
row,Cell Line,relative viability
1,NCI-H838,0.403
2,NCI-H1650,0.429
3,EBC-1,0.527
4,NCI-H1703,1.11
5,NCI-H1993,0.765
6,NCI-H2087,1.04
7,PC-14,0.532
8,NCI-H596,0.534
9,NCI-H2228,0.625
10,EMC-BAC-2,1.18
11,NCI-H2085,1.02
12,Calu-6,0.336
13,HCC-366,0.489
14,NCI-H1666,0.579
15,NCI-H647,0.263
16,LK-2,0.537
17,NCI-H2126,0.82
18,SK-MES-1,0.97
19,H3255,0.596
20,COR-L23,0.723
21,IA-LM,0.673
22,HCC-44,0.323
23,A549,0.827
24,NCI-H727,0.339
25,NCI-H1299,1.01
26,NCI-H1792,0.665

# Same assay, conditions: first compound 0.1 µM; main component drawn
row,Cell Line,relative viability
1,NCI-H838,0.274
2,NCI-H1650,0.212
3,EBC-1,0.379
4,NCI-H1703,0.531
5,NCI-H1993,0.863
6,NCI-H2087,0.841
7,PC-14,0.174
8,NCI-H596,0.312
9,NCI-H2228,0.664
10,EMC-BAC-2,0.979
11,NCI-H2085,0.849
12,Calu-6,0.207
13,HCC-366,0.268
14,NCI-H1666,0.518
15,NCI-H647,0.203
16,LK-2,0.415
17,NCI-H2126,0.839
18,SK-MES-1,0.736
19,H3255,0.495
20,COR-L23,0.332
21,IA-LM,0.611
22,HCC-44,0.278
23,A549,0.54
24,NCI-H727,0.351
25,NCI-H1299,0.922
26,NCI-H1792,0.492

# Same assay, conditions: first compound 0.3162 µM; main component drawn
row,Cell Line,relative viability
1,NCI-H838,0.19
2,NCI-H1650,0.148
3,EBC-1,0.274
4,NCI-H1703,0.278
5,NCI-H1993,0.663
6,NCI-H2087,0.371
7,PC-14,0.0752
8,NCI-H596,0.276
9,NCI-H2228,0.437
10,EMC-BAC-2,0.661
11,NCI-H2085,0.508
12,Calu-6,0.114
13,HCC-366,0.0573
14,NCI-H1666,0.362
15,NCI-H647,0.0968
16,LK-2,0.214
17,NCI-H2126,0.8
18,SK-MES-1,0.278
19,H3255,0.229
20,COR-L23,0.0914
21,IA-LM,0.28
22,HCC-44,0.161
23,A549,0.127
24,NCI-H727,0.181
25,NCI-H1299,0.396
26,NCI-H1792,0.302

# Same assay, conditions: first compound 1 µM; main component drawn
row,Cell Line,relative viability
1,NCI-H838,0.172
2,NCI-H1650,0.211
3,EBC-1,0.269
4,NCI-H1703,0.203
5,NCI-H1993,0.584
6,NCI-H2087,0.158
7,PC-14,0.0592
8,NCI-H596,0.305
9,NCI-H2228,0.363
10,EMC-BAC-2,0.399
11,NCI-H2085,0.465
12,Calu-6,0.0817
13,HCC-366,0.0178
14,NCI-H1666,0.324
15,NCI-H647,0.0761
16,LK-2,0.239
17,NCI-H2126,0.643
18,SK-MES-1,0.18
19,H3255,0.179
20,COR-L23,0.104
21,IA-LM,0.205
22,HCC-44,0.191
23,A549,0.0446
24,NCI-H727,0.286
25,NCI-H1299,0.376
26,NCI-H1792,0.109

# Compound: COc1cc([C@@H]2c3cc4c(cc3[C@@H](O[C@@H]3O[C@@H]5CO[C@@H](C)O[C@H]5[C@H](O)[C@H]3O)[C@H]3COC(=O)[C@H]23)OCO4)cc(OC)c1O [Etoposide] + COc1cc2c(Oc3ccc(NC(=O)C4(C(=O)Nc5ccc(F)cc5)CC4)cc3F)ccnc2cc1OCCCN1CCOCC1 [Foretinib] (partner 0.25 µM)
# Assay: as above
# Conditions: first compound 0.01 µM
# How it was run: as §1
row,Cell Line,relative viability
1,NCI-H1623,0.984
2,NCI-H838,0.981
3,NCI-H1650,0.981
4,EBC-1,0.119
5,NCI-H1703,0.39
6,NCI-H1993,0.788
7,NCI-H2087,1.04
8,PC-14,0.953
9,LCLC-103H,0.592
10,NCI-H596,0.748
11,NCI-H2228,0.803
12,EMC-BAC-2,0.918
